The results in this text go back to patent US5204462A, “4H-3,1-benzoxazin-4-one derivative” (Japan Tobacco, Inc., priority 1990, dated 1993).

Holding throughout (format): biochemical
For experiment [1], the target named is T1, human leukocyte elastase (HLE) (Homo sapiens, UniProt P08246).
T1 construct: HLE was purified according to the method described by A. J. Barrett; from tissue; host or cells: purified from natural human material by Barrett's method (Methods in Enzymology 80, 581-588, 1981)
T1 sequence (P08246 30-247 limits assumed): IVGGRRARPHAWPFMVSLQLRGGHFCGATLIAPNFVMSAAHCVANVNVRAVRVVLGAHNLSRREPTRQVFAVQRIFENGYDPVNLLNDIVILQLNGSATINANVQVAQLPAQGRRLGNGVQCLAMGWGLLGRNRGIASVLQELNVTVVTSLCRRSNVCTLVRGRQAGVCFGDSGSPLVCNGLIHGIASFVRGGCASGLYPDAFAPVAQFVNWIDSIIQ
The experiment can be described thus: Test 1: Measurement of inhibitory activity against HLE. As to conditions: MeO-Suc-Ala-Ala-Pro-Val-pNA substrate, pH 8.6, 37° C., 10 min after mixing enzyme and inhibitor, steady state rate. As to the method:
(§1) In order to investigate the serine protease inhibiting activity of the 4H-3,1-benzoxazin-4-one derivatives according to the present invention, human leukocyte elastase (HLE), bovine α-chymotrypsin (CYT), and human cathepsin G (HCG) were used in accordance with the following methods.
(§2) Note that the 4H-3,1-benzoxazin-4-one derivative of the present invention was dissolved in dimethylsulfoxide (DMSO) to adjust to the concentration to 1 mg/ml. This solution was serially diluted with DMSO, and twice the volume of measurement buffer was added to these DMSO solutions to provide the inhibitor solution. Test 1: Measurement of inhibitory activity against HLE
0.2M tris-hydrochloride buffer (pH=8.6)
HLE was purified according to the method described by A. J. Barrett ("Methods in Enzymology", Vol. 80, pp. 581 to 588, 1981) and adjusted to a concentration of 190 nM with measurement buffer. This solution was used as the enzyme solution.
Methoxysuccinyl-L-alanyl-L-alanyl-L-prolyl-L-valyl-paranitroanilide (Funakoshi Co. Ltd., Tokyo, Japan) as enzyme substrate was dissolved and adjusted to a concentration of 5 mM with DMSO. This DMSO solution was diluted with twice the volume of measurement buffer, and then used as the substrate solution.
(§3) The enzyme solution, the substrate solution, and the inhibitor solution were pre-incubated at 37° C. for 10 minutes. The enzyme solution (140 μl) and the inhibitor solution (30 μl) were mixed in a well of a 96-well microtiter plate (Nunc Co. Ltd., Roskilde, Denmark), and the substrate solutions (30 μl) were added 10 minutes after the mixing, thereby starting the enzyme reaction. Hydrolysis of the substrate was monitored by the measurement of absorbance at 405 nm using a micro plate photometer (Corona Co. Ltd, Tokyo, Japan). The inhibitor concentration at which the activity of HLE was inhibited by 50% (IC50) was calculated from the substrate hydrolysis rate in the steady state.

Experiment [2] deals with T2, bovine α-chymotrypsin (CYT) (Bos taurus, UniProt P00766).
T2 construct: purchased Sigma Co. Ltd., St. Louise, MO
The experiment can be described thus: Test 2: Measurement of inhibitory activity against CYT. Particulars: MeO-Suc-Ala-Ala-Pro-Phe-pNA substrate, pH 8.0, same procedures as Test 1. As for the experimental part:
as §1, §2, §3
Test 2: Measurement of inhibitory activity against CYT.
0.2M tris-hydrochloride buffer (pH=8.0)
CYT (Sigma Co. Ltd., St. Louise, MO) was adjusted to a concentration of 190 nM with the measurement buffer. This solution was used as the enzyme solution.
Methoxysuccinyl-L-alanyl-L-alanyl-L-prolyl-L-phenylalanyl-paranitroanilide (Funakoshi) as the enzyme substrate was dissolved and adjusted to a concentration of 5 mM with DMSO. This DMSO solution was diluted with twice the volume of measurement buffer, and then used as the substrate solution.
IC50 against CYT was determined in the same procedures detailed in Test 1.

For experiment [3], the target named is T3, human cathepsin G (HCG) (Homo sapiens, UniProt P08311).
T3 construct: purchased Cosmo Bio Co. Ltd., Tokyo, Japan
T3 sequence (P08311 21-244 limits assumed): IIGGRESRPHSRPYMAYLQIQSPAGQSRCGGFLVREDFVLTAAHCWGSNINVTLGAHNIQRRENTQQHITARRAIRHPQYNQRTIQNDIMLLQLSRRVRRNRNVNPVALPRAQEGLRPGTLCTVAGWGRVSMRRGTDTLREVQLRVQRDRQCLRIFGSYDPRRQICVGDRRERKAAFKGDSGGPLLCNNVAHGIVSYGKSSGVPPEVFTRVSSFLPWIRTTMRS
The experiment can be described thus: Test 3: Measurement of inhibitory activity against HCG. As to conditions: MeO-Suc-Ala-Ala-Pro-Phe-pNA substrate, pH 7.5, same procedure as Test 1. As to the method: as §1, §2, §3
Test 3: Measurement of inhibitory activity against HCG.
0.2M tris-hydrochloride buffer (pH=7.5)
HCG (Cosmo Bio Co. Ltd., Tokyo, Japan) was adjusted to a concentration of 190 nM with the measurement buffer. This solution was used as the enzyme solution.
Methoxysuccinyl-L-alanyl-L-alanyl-L-prolyl-L-phenylalanyl-paranitroanilide (Funakoshi) as the enzyme substrate was dissolved and adjusted to a concentration of […] with DMSO. This DMSO solution was diluted with twice the volume of the measurement buffer, and then used as the substrate solution.
IC50 against HCG was determined in the same procedure detailed in Test 1.

On to `Cc1cccc2nc([C@@H](NC(=O)[C@@H]3CCCN3C(=O)OCc3ccccc3)C(C)C)oc(=O)c12` [Example 1, (1'S)-2-[1'-(N-benzyloxycarbonyl-L-prolyl)amino-2'-methyl]propyl-5-methyl-4H-3,1-benzoxazin-4-one], for which the concentration for half-maximal inhibition (IC50) in experiment [1] is 0.28 µM; in experiment [2], 2.89 µM; in experiment [3] it was above 50 µM.

As to `Cc1cccc2nc([C@@H](NC(=O)[C@@H]3CCCN3C(=O)OC(C)(C)C)C(C)C)oc(=O)c12` [Example 2, (1'S)-2-[1'-(N-tert-butyloxycarbonyl-L-prolyl)amino-2'-methyl]propyl-5-methyl-4H-3,1-benzoxazin-4-one], the half-inhibitory concentration (IC50) in experiment [1] was found to be 2.72 µM; in experiment [2], 18.3 µM; in experiment [3] it was 26.5 µM.

For the compound `Cc1cccc2nc([C@@H](NC(=O)[C@@H]3CCCN3C(=O)/C=C/c3ccccc3)C(C)C)oc(=O)c12` [Example 3, (1'S)-2-[1'-(N-cinnamoyl-L-prolyl)amino-2'-methyl]propyl-5-methyl-4H-3,1-benzoxazin-4-one], the IC50 in experiment [1] was 1.31 µM; in experiment [2], 15.6 µM; in experiment [3], above 200 µM.

Turning to `Cc1cccc2nc([C@@H](NC(=O)[C@@H]3CCCN3C(=O)CCc3ccccc3)C(C)C)oc(=O)c12` [Example 4, (1'S)-5-methyl-2-{2'-methyl-1'-[N-(3-phenylpropionyl)-L-prolyl]amino}propyl-4H-3,1-benzoxazin-4-one], the figures for the half-inhibitory concentration (IC50) in experiment [1], in experiment [2] and in experiment [3] were 0.52 µM, 8.69 µM and above 200 µM, respectively.

On to `CCCCCC(=O)N1CCC[C@H]1C(=O)N[C@H](c1nc2cccc(C)c2c(=O)o1)C(C)C` [Example 5, (1'S)-2-[1'-(N-hexanoyl-L-prolyl)amino-2'-methyl]propyl-5-methyl-4H-3,1-benzoxazin-4-one], for which the half-maximal inhibitory concentration (IC50) was 1.22 µM in experiment [1], 11.3 µM in experiment [2] and above 140 µM in experiment [3].

With `COC(=O)CCC(=O)N[C@@H](C)C(=O)N[C@@H](C)C(=O)N1CCC[C@H]1C(=O)N[C@H](c1nc2cccc(C)c2c(=O)o1)C(C)C` [Example 6, (1'S)-2-[1'-(methoxysuccinyl-L-alanyl-L-alanyl-L-prolyl)amino-2'-methyl]propyl-5-methyl-4H-3,1-benzoxazin-4-one], the concentration for half-maximal inhibition (IC50) in experiment [1] came out at 2.98 µM; in experiment [2] it was 22.1 µM; in experiment [3] it was 15 µM.

On to `CSCC[C@H](NC(=O)[C@@H]1CCCN1C(=O)OCc1ccccc1)c1nc2cccc(C)c2c(=O)o1` [Example 10, (1'S)-2-[1'-(N-benzyloxycarbonyl-L-prolyl)amino-3'-(methylthio)]propyl-5-methyl-4H-3,1-benzoxazin-4-one], for which the figures for the IC50 in experiment [1], in experiment [2] and in experiment [3] were 0.99 µM, 4.51 µM and above 50 µM, respectively.

On to `Cc1cccc2nc([C@@H](NC(=O)[C@@H]3C[C@@H](O)CN3C(=O)OCc3ccccc3)C(C)C)oc(=O)c12` [Example 12, (1'S)-2-[1'-(N-benzyloxycarbonyl-trans-4-hydroxy-L-prolyl)amino-2'-methyl]propyl-5-methyl-4H-3,1-benzoxazin-4-one], for which the IC50 in experiment [1] is 1.15 µM; in experiment [2] it was 10.7 µM; in experiment [3], above 200 µM.
